Reference: PubChem BioAssay AID1259411 (Chemical Carcinogenesis Research Information System (CCRIS), 2018)
Active and inactive are the calls of the source. The rule behind the calls is not given here.

Tested on: rodent carcinogenicity bioassays, tumor incidence
Test: CCRIS carcinogenicity studies
Procedure, shortened: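 Archive of carcinogenicity, mutagenicity, tumor promotion and tumor inhibition results drawn from journals, NCI reports and other sources, expert-reviewed; covers 1985-2011 and is no longer updated.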

Measured: carcinogen call

C=CC#N
active: Species: HUMAN, Route: INHALATION, Tumor Site: Type of Lesion: LUNG, COLON active; positive | Species: MOUSE, Strain/Sex: B6C3F1/FEMALE, Route: GAVAGE, Dose: 0, 2.5, 10, 20 MG/KG 5D/WK FOR 104-105 WK (STUDY DURATION: 104-105 WK), Dose: 0, 2.5, 10, 20 MG/KG 5D/WK FOR 104-105 WK (STUDY DURATION: 104-105 WK), Tumor Site: Type of Lesion: FORESTOMACH: SQUAMOUS CELL PAPILLOMA, SQUAMOUS CELL CARCINOMA, SQUAMOUS CELL PAPILLOMA OR CARCINOMA, HARDERIAN GLAND: AD active; positive | Species: MOUSE, Strain/Sex: B6C3F1/FEMALE, Route: GAVAGE, Dose: 0, 2.5, 10, 20 MG/KG/D 5 D/WK FOR 105 WK (STUDY DURATION: 105 WK), Dose: 0, 2.5, 10, 20 MG/KG/D 5 D/WK FOR 105 WK (STUDY DURATION: 105 WK), Tumor Site: Type of Lesion: FORESTOMACH: SQUAMOUS CELL PAPILLOMA, SQUAMOUS CELL CARCINOMA, SQUAMOUS CELL PAPILLOMA OR CARCINOMA, EPITHELIAL HYPERPLA active; positive | Species: MOUSE, Strain/Sex: B6C3F1/MALE, Route: GAVAGE, Dose: 0, 2.5, 10, 20 MG/KG 5D/WK FOR 104-105 WK (STUDY DURATION: 104-105 WK), Dose: 0, 2.5, 10, 20 MG/KG 5D/WK FOR 104-105 WK (STUDY DURATION: 104-105 WK), Tumor Site: Type of Lesion: FORESTOMACH: SQUAMOUS CELL PAPILLOMA, SQUAMOUS CELL CARCINOMA, SQUAMOUS CELL PAPILLOMA OR CARCINOMA, HARDERIAN GLAND: AD active; positive | Species: MOUSE, Strain/Sex: B6C3F1/MALE, Route: GAVAGE, Dose: 0, 2.5, 10, 20 MG/KG/D 5 D/WK FOR 105 WK (STUDY DURATION: 105 WK), Dose: 0, 2.5, 10, 20 MG/KG/D 5 D/WK FOR 105 WK (STUDY DURATION: 105 WK), Tumor Site: Type of Lesion: FORESTOMACH: SQUAMOUS CELL PAPILLOMA, SQUAMOUS CELL CARCINOMA, SQUAMOUS CELL PAPILLOMA OR CARCINOMA, EPITHELIAL HYPERPLA active; positive | Species: RAT, Route: INHALATION, Tumor Site: Type of Lesion: MAMMARY GLAND, NERVOUS SYSTEM (CENTRAL), EAR (ZYMBAL GLAND), Tumor Site: Type of Lesion: MAMMARY GLAND, NERVOUS SYSTEM (CENTRAL), EAR (ZYMBAL GLAND) active; positive | Species: RAT, Route: ORAL, Tumor Site: Type of Lesion: FORESTOMACH, STOMACH, NERVOUS SYSTEM (CENTRAL), EAR (ZYMBAL GLAND), Tumor Site: Type of Lesion: FORESTOMACH, STOMACH, NERVOUS SYSTEM (CENTRAL), EAR (ZYMBAL GLAND) active; positive | Species: RAT, Strain/Sex: F344/FEMALE, Route: ORAL, Dose: 0, 1, 3, 10, 30, 100 PPM IN DRINKING WATER FOR LIFETIME (STUDY DURATION: 26 MO), Dose: 0, 1, 3, 10, 30, 100 PPM IN DRINKING WATER FOR LIFETIME (STUDY DURATION: 26 MO), Tumor Site: Type of Lesion: BRAIN: ASTROCYTOMA, ZYMBAL'S GLAND: SQUAMOUS CELL PAPILLOMA, ADENOMA/CARCINOMA, MAMMARY GLAND: FIBROADENOMA, FORESTOMAC, Tumor Site: Type of Lesion: BRAIN: ASTROCYTOMA, ZYMBAL'S GLAND: SQUAMOUS CELL PAPILLOMA, ADENOMA/CARCINOMA, MAMMARY GLAND: FIBROADENOMA, FORESTOMAC active; positive | Species: RAT, Strain/Sex: F344/MALE, Route: ORAL, Dose: 0, 1, 3, 10, 30, 100 PPM IN DRINKING WATER FOR LIFETIME (STUDY DURATION: 26 MO), Dose: 0, 1, 3, 10, 30, 100 PPM IN DRINKING WATER FOR LIFETIME (STUDY DURATION: 26 MO), Tumor Site: Type of Lesion: BRAIN: ASTROCYTOMA, SPINAL CORD: ASTROCYTOMA, ZYMBAL'S GLAND: SQUAMOUS CELL PAPILLOMA, ADENOMA/CARCINOMA, FORESTOMACH: S, Tumor Site: Type of Lesion: BRAIN: ASTROCYTOMA, SPINAL CORD: ASTROCYTOMA, ZYMBAL'S GLAND: SQUAMOUS CELL PAPILLOMA, ADENOMA/CARCINOMA, FORESTOMACH: S active; positive | Species: RAT, Strain/Sex: SPRAGUE-DAWLEY/FEMALE, Route: GAVAGE, Dose: 0, 0.1, 10 MG/KG/D 7D/WK FOR 20 MO (STUDY DURATION: 20 MO), Dose: 0, 0.1, 10 MG/KG/D 7D/WK FOR 20 MO (STUDY DURATION: 20 MO), Tumor Site: Type of Lesion: BRAIN: ASTROCYTOMA, ZYMBAL'S GLAND/EAR CANAL: CARCINOMA, FORESTOMACH: SQUAMOUS CELL PAPILLOMA/PAPILLOMA, SQUAMOUS CELL C, Tumor Site: Type of Lesion: BRAIN: ASTROCYTOMA, ZYMBAL'S GLAND/EAR CANAL: CARCINOMA, FORESTOMACH: SQUAMOUS CELL PAPILLOMA/PAPILLOMA, SQUAMOUS CELL C active; positive
equivocal: Species: MOUSE, Strain/Sex: B6C3F1/FEMALE, Route: GAVAGE, Dose: 0, 2.5, 10, 20 MG/KG 5D/WK FOR 104-105 WK (STUDY DURATION: 104-105 WK), Dose: 0, 2.5, 10, 20 MG/KG 5D/WK FOR 104-105 WK (STUDY DURATION: 104-105 WK), Tumor Site: Type of Lesion: OVARY: MALIGNANT GRANULOSA CELL TUMOR, LUNG (ALVEOLAR/BRONCHIOLAR): ADENOMA OR CARCINOMA
inactive: Species: RAT, Strain/Sex: SPRAGUE-DAWLEY/FEMALE, Route: GAVAGE, Dose: 0, 5 MG/KG BW IN OLIVE OIL 3/WK FOR 52 WK (STUDY DURATION: LIFETIME), Tumor Site: Type of Lesion: [BRAIN WAS ONLY SITE EVALUATED] inactive; negative
